Assay results: paper PMC10644327, “A randomized, double‐blind phase 1b study evaluating the safety, tolerability, pharmacokinetics and pharmacodynamics of the NLRP3 inhibitor selnoflast in patients with moderate to severe active ulcerative colitis” (Clinical and Translational Medicine, 2023)

Columns and labels:
[1] = Safety and tolerability in patients with ulcerative colitis; assay type: in vivo, human
Text: The primary objective of this study was to evaluate the PK, safety, and tolerability of selnoflast. The main endpoints were the incidence and severity of adverse events (AEs), changes in vital signs, 12‐lead electrocardiogram (ECG) parameters, and clinical laboratory safety parameters. AEs were monitored throughout the study and at the 14‐day follow‐up visit. Safety assessments included recording of the incidence and type of treatment‐emergent adverse events (TEAEs), discontinuations, serious TEAEs, and adverse events of special interest (AESIs) (including cases of elevated alanine aminotransferase [ALT] or aspartate aminotransferase [AST] in combination with either elevated bilirubin or clinical jaundice). Vital signs, ECGs, blood chemistry and hematology panels, coagulation panels and urinalysis were assessed at screening and at various time points during the study. Changes in absolute lymphocyte count were also assessed. Blood samples for PK analyses were obtained pre‐dose and at various timepoints up to 24 h post‐dose throughout the 7‐day in‐clinic treatment period, as well as once during the 14‐day follow‐up visit. As the 1‐week duration of the study was too short for assessing clinical changes, no clinical assessments were planned. Further details are given in the study protocol (Supporting Information).

[2] = test system: Caspase‐1; assay: Caspase‐1 (pro and active form) WES‐assay in sigmoid colon tissue; assay type: in vivo, human; conditions: after 7 days’ treatment
Protocol: Tissue biopsies from the sigmoid colon were obtained before start of treatment (up to Day −3) and at the end of treatment (Day 7). For operational reasons, biopsies were taken 2−4.5 h post‐dose on Day 7. Stool samples were obtained at screening, before start of treatment, throughout the study, and at the 14‐day follow‐up visit. Levels of calprotectin were determined in stool samples. Sigmoid colon tissue was processed for RNA and DNA extraction as well as for single‐cell analysis, subsequent transcriptomic analysis, and identification of PD biomarkers. Sigmoid colon tissue samples were also processed for histology (hematoxylin and eosin staining, immunohistochemistry, fluorescence in situ hybridization) in order to characterize the cell types present (i.e., neutrophils and inflammatory monocytes). Histological analysis was performed on sigmoid colon tissue samples (from baseline and Day 7) using the disease‐specific histological indices Geboes score[23] and Nancy index.[24] Caspase‐1 (pro and active form) was assessed using a validated WES‐assay (manuscript in preparation).

[3] = test system: IL‐1 gene signature (CXCL1, CXCL2, CXCL3, CXCL5, CXCL6, CCL2, IL6, TNFAIP6); assay: IL‐1 gene signature in sigmoid colon tissue by qPCR; assay type: in vivo, human; conditions: mean [± SD], selnoflast arm, median log2FC of 8 genes
Protocol: A predefined IL‐1 gene signature comprising eight genes (i.e., CXCL1, CXCL2, CXCL3, CXCL5, CXCL6, CCL2, IL6, TNFAIP6) relevant in the context of IBD was assessed in RNA extracted from the sigmoid colon tissue. The signature had been determined by combining gene expression data that met the following criteria: (1) overlapping expression profiles (upregulation by IL‐1β stimulation) in multiple cell types,[25] (2) differential expression in relevant cell types across published and proprietary single‐cell RNA‐sequencing (scRNA‐seq) datasets involving IBD patients and controls[26] and (3) co‐expression with the IL1R1 receptor and differential colonic gene expression between UC patients and healthy individuals. The 8‐gene panel was then assessed by quantitative PCR (qPCR) before and after treatment (baseline and Day 7), normalized to a set of housekeeping genes (B2M, GusB, HPRT1, MRLP19) and log2 fold changes (log2FC) from baseline were reported per gene as well as across the eight genes (median log2FC = gene signature).

[4] = test system: cells isolated from the sigmoid colon; assay: Single‐cell RNA sequencing of sigmoid colon tissue; assay type: in vivo, human; conditions: pseudobulk method, baseline and Day 7
Protocol: Single cell suspensions were obtained from cryopreserved sigmoid colon tissue samples through mechanical and enzymatic dissociation, and loaded onto a 10X chromium controller for cell partitioning. Single‐cell RNA‐sequencing libraries were prepared using 10X genomics NextGEM single‐cell 3′ version 3.1 reagents and sequenced on an Illumina NovaSeq 6000 sequencer. Quality control, data filtering, and data analysis was performed with the BESCA software (version 2.5.1)[27] and the RiBIOS software suite, as well as using custom scripts in both R (version 4.2.0) and Python (version 3.8).

[5] = test system: AIM2; set-up: method as in unpublished results; conditions: ref unpublished results; cited from earlier work
[6] = cited from earlier work
[7] = set-up: method as in Investigator Brochure; conditions: ref Investigator Brochure, cited from earlier work
[8] = set-up: method as in Investigator Brochure; conditions: ref Investigator Brochure, cited from earlier work; remark: listed apart in the source

CCN1CCC(S(=O)(=O)NC(=O)Nc2c3c(cc4c2CCC4)CCC3)CC1 [Selnoflast, selnoflast]
Deaths ([1]; N = 13): 0 | Patients with at least one AE with fatal outcome ([1]; N = 13): 0 | AEs considered treatment‐related ([1]; human, in vivo, 7 days): 23.1% | Dyspepsia, patients ([1]; human, in vivo, 7 days): 15.4% | Headache, patients ([1]; human, in vivo, 7 days): 15.4% | Patients with at least one AE leading to dose modification/interruption ([1]; human, in vivo, 7 days): 0 | Patients with at least one AE leading to withdrawal from treatment ([1]; human, in vivo, 7 days): 0 | Patients with at least one Related AE ([1]; human, in vivo, 7 days): 3 (23.1%) | Patients with at least one Related AE leading to dose modification/ interruption ([1]; human, in vivo, 7 days): 0 | Patients with at least one Related AE leading to withdrawal from treatment ([1]; human, in vivo, 7 days): 0 | Patients with at least one Serious AE ([1]; human, in vivo, 7 days): 0 | Patients withdrawn from study due to AE ([1]; human, in vivo, 7 days): 0 | Severity of AEs ([1]; human, in vivo, 7 days): mild (Grade 1), with the exception of one AE of Grade 2 severity | Caspase‐1 (pro‐ and active forms) change [2]: did not show marked changes | IL‐1 gene signature, log2FC from baseline to Day 7 [3]: −1.14 [± 1.8] log2FC | Cellular composition and gene expression, difference between treatment arms [4]: No significant differences | Inhibitory activity on AIM2 inflammasome [5]: no inhibitory activity | Dose dependence of systemic exposure ([6]; healthy subjects, 20 to 600 mg, ref unpublished results, IZD334‐001): approximately dose‐proportional | Median Tmax ([6]; healthy subjects, single administration, 20 to 600 mg, fasted, ref unpublished results, IZD334‐001): 30 to 360 min | Steady‐state achieved ([6]; healthy subjects, ref unpublished results, IZD334‐001): Day 2 | Change in exposure on repeat dosing ([6]; healthy volunteers, repeat dosing for 7 days, ref study IZD334-001): no indication of a change | half-life ([6]; healthy volunteers, ref study IZD334-001): approximately 7 hours | Potential to cause direct hepatotoxicity ([7]; at therapeutically relevant concentrations, based on in vitro assessments): low | Mitochondrial toxicity ([7]; in vitro): did not show mitochondrial toxicity | Signs of hepatotoxicity ([8]; 26-week GLP study, rat): no signs of hepatotoxicity | Bacterial, viral, fungal, and other opportunistic infections ([8]; rats, nonclinical toxicology studies): No evidence
